Experimental data taken from patent EP3513780A1, “METHOD FOR SUPPORTING EPIDERMAL STEM CELL SELF-RENEWAL” (DSM IP Assets B.V., priority 2018, dated 2019).

Experiments:
hsa-miR-203 = experiment: microRNA expression (qPCR) in NHEK: hsa-miR-203; conditions: for Changes in microRNA Expression of hsa-miR-203 (linear fold-change): 24 hours, 0.1 mM (Vitamin B12 0.03 mM), vs Control group, normalized to RNU44, N=4, negative = decrease
Experimental: (§1) The study was conducted to understand how different vitamin B supplements influence microRNA and mRNA gene expression in keratinocytes. MicroRNAs are small, non-coding RNA molecules that function as negative regulators of gene expression. […] The current study was performed using normal human epidermal keratinocytes [NHEK].
(§2) All Test Materials were diluted in DermaLife K medium.
(§3) An initial cytotoxicity screening was performed to evaluate a range of Test Material concentrations prior to the microRNA analysis. […] Pyridoxine HCl, 0.1 mM • 4. Vitamin B12, 0.03mM • 5. Niacinamide, 0.1 mM • 6.
(§4) Unpaired t-tests (p<0.05, N=4) were performed to compare each Test Material group to the Control group. […] An endogenous control microRNAs (RNU44) was used for normalization.
(§5) Vitamin B2, 0.1 mM • 2. D-panthenol, 0.1 mM • 3. Pyridoxine HCl, 0.1 mM • 4. Vitamin B12, 0.03mM • 5. Niacinamide, 0.1 mM • 6. Folic Acid, 0.1 mM
(§6) Fresh media replacements were performed every other day.
(§7) The preamplification reaction was run for 12 cycles.
(§8) qPCR Processing: qPCR reactions were run using validated Taqman® MicroRNA assays in a Custom OpenArray format. […] Each microRNA was assayed in duplicate.
(§9) Unpaired t-tests were carried out using StatMiner software.

hsa-miR-720 = experiment: microRNA expression (qPCR) in NHEK: hsa-miR-720; conditions: 24 hours, 0.1 mM (Vitamin B12 0.03 mM), vs Control group, normalized to RNU44, N=4, negative = decrease
Experimental: as §1, §2, §3, §4, §5, §6, §7, §8, §9

CALML5 = experiment: Gene expression (qPCR) in NHEK: CALML5; type: cell-based, human; conditions: 24 hours, 0.1 mM (Vitamin B12 0.03 mM), normalized to HPRT1, n.s. = not statistically significant
Experimental: as §5, §2, §6
(§10) OpenArray format. […] Each gene was assayed in duplicate.
(§11) See the Endogenous Control Selection section for more details. Unpaired t-tests were carried out using StatMiner software.

KLK7 = experiment: Gene expression (qPCR) in NHEK: KLK7; type: cell-based, human; conditions: 24 hours, 0.1 mM (Vitamin B12 0.03 mM), normalized to HPRT1, n.s. = not statistically significant
Experimental: as §5, §2, §6, §10, §11

KRT1 = experiment: Gene expression (qPCR) in NHEK: KRT1; type: cell-based, human; conditions: 24 hours, 0.1 mM (Vitamin B12 0.03 mM), normalized to HPRT1, n.s. = not statistically significant
Experimental: as §5, §2, §6, §10, §11

KRT10 = experiment: Gene expression (qPCR) in NHEK: KRT10; type: cell-based, human; conditions: 24 hours, 0.1 mM (Vitamin B12 0.03 mM), normalized to HPRT1, n.s. = not statistically significant
Experimental: as §5, §2, §6, §10, §11

LCE3D = experiment: Gene expression (qPCR) in NHEK: LCE3D; type: cell-based, human; conditions: 24 hours, 0.1 mM (Vitamin B12 0.03 mM), normalized to HPRT1, n.s. = not statistically significant
Experimental: as §5, §2, §6, §10, §11

SPINK5 = experiment: Gene expression (qPCR) in NHEK: SPINK5; type: cell-based, human; conditions: 24 hours, 0.1 mM (Vitamin B12 0.03 mM), normalized to HPRT1, n.s. = not statistically significant
Experimental: as §5, §2, §6, §10, §11

TP63 = experiment: Gene expression (qPCR) in NHEK: TP63; conditions: for Linear Fold-Change Value, Each Group vs the Untreated Control: TP63: 24 hours, 0.1 mM (Vitamin B12 0.03 mM), normalized to HPRT1, n.s. = not statistically significant
Experimental: Cell Culture, Cytotoxicity Screening: NHEK [purchased from Lifeline Cell Technologies] were cultured and maintained at 37°C with 5% CO2 using DermaLife K medium according to the manufacturer's recommendations. Two days prior to treatment, NHEK were seeded at a density of -20,000 cells per cm^2 in 24-well plates. Cultures were approximately 75% confluent at the time of treatment.
Stock solutions and final working concentrations of each Test Material were prepared: The following treatment groups were included in the study (N=4): • 1. Vitamin B2, 0.1 mM • 2. D-panthenol, 0.1 mM • 3. Pyridoxine HCl, 0.1 mM • 4. Vitamin B12, 0.03mM • 5. Niacinamide, 0.1 mM • 6. Folic Acid, 0.1 mM
All Test Materials were diluted in DermaLife K medium. NHEK cultured in DermaLife K medium without added supplements served as the Control group.
Treatment and Maintenance of Cultures: Maintenance medium (DermaLife K) was removed from each culture well and replaced with 500 µL (for 24-well cytotoxicity screening) or 2.0 mL (for 6-well gene expression screening) prewarmed Test Medium. Following application of Test Media, the cultures were returned to the incubator at 37°C with 5 % CO2 for 24 hours.
Treatment and Collection of Cell Culture for Gene Expression: Cultures were seeded at a concentration of 20,000 cells/cm^2 in a 6-well plate and incubated for three days at 37°C with 5 % CO2. Fresh media replacements were performed every other day. On the day of treatment, maintenance medium was replaced with test medium. Following a 24 hour exposure, test medium was removed and cell lysis was performed through the addition of 700uL Qiazol lysis buffer (Qiagen) to each well. Cell lysates were immediately collected and stored at -80°C.
RNA Isolation: Total RNA was isolated from frozen cell lysates using a Qiagen miRNeasy Mini kit following the manufacturer's instructions for cultured cells. Total RNA concentration and purity were determined using a Nanodrop 2000 spectrophotometer.
OpenArray format. OpenArrays were run in a Life Technologies QuantStudio 12K Flex instrument. Each gene was assayed in duplicate.
Data Analysis: qPCR data was imported into RealTime StatMiner software v4.2 for statistical analysis using the relative quantitation (RQ) method. […] Unpaired t-tests were carried out using StatMiner software. Statistically significant changes in gene expression (p<0.05) are reported. Linear fold-change data for each subject was calculated using Microsoft Excel.For RQ values >1.0: Linear fold-change value = RQ value For RQ values < 1.0:Linear ford−change value = −1/RQ value [formula]
Statistical Data Analysis Using Statminer Software: qPCR data is typically expressed in log scale and then converted to a linear fold change value. A log10RQ value of 1.0 is equivalent to a 10-fold change in gene expression. A log10RQ value of 0.3 is equivalent to a 2-fold change in gene expression. The log10RQ values have been converted to linear fold change values to simplify data interpretation.

CC(C)(CO)[C@@H](O)C(=O)NCCCO [D-Panthenol, (+)-(R)-2,4-Dihydroxy-N-(3-hydroxypropyl)-3,3-dimethylbutyramid]
Changes in microRNA Expression of hsa-miR-203 (linear fold-change) (hsa-miR-203): -1.76 fold | Changes in microRNA Expression of hsa-miR-720 (linear fold-change) (hsa-miR-720): -2.21 fold | Linear Fold-Change Value, Each Group vs the Untreated Control: CALML5 (CALML5): -1.87 fold | Linear Fold-Change Value, Each Group vs the Untreated Control: KLK7 (KLK7): -1.60 fold | Linear Fold-Change Value, Each Group vs the Untreated Control: KRT1 (KRT1): -4.68 fold | Linear Fold-Change Value, Each Group vs the Untreated Control: KRT10 (KRT10): -2.26 fold | Linear Fold-Change Value, Each Group vs the Untreated Control: LCE3D (LCE3D): -1.99 fold | Linear Fold-Change Value, Each Group vs the Untreated Control: SPINK5 (SPINK5): -2.00 fold | Linear Fold-Change Value, Each Group vs the Untreated Control: TP63 (TP63): 1.54 fold

Nc1nc2ncc(CNc3ccc(C(=O)N[C@@H](CCC(=O)O)C(=O)O)cc3)nc2c(=O)[nH]1 [Folic acid]
Changes in microRNA Expression of hsa-miR-203 (linear fold-change) (hsa-miR-203): -1.46 fold | Changes in microRNA Expression of hsa-miR-720 (linear fold-change) (hsa-miR-720): -1.64 fold | Linear Fold-Change Value, Each Group vs the Untreated Control: CALML5 (CALML5): -1.67 fold | Linear Fold-Change Value, Each Group vs the Untreated Control: KLK7 (KLK7): -1.41 fold | Linear Fold-Change Value, Each Group vs the Untreated Control: KRT1 (KRT1): -3.27 fold | Linear Fold-Change Value, Each Group vs the Untreated Control: KRT10 (KRT10): -1.73 fold | Linear Fold-Change Value, Each Group vs the Untreated Control: LCE3D (LCE3D): -1.72 fold | Linear Fold-Change Value, Each Group vs the Untreated Control: SPINK5 (SPINK5): -1.79 fold | Linear Fold-Change Value, Each Group vs the Untreated Control: TP63 (TP63): 1.43 fold

NC(=O)c1cccnc1 [Niacinamide, nicotinamide]
fold induction at 100 µM (hsa-miR-203; Homo sapiens, 24 h, read-out: Changes in microRNA Expression of hsa-miR-203 (linear fold-change)): 1.03 | Linear Fold-Change Value, Each Group vs the Untreated Control: KLK7 (KLK7): n.s. | Linear Fold-Change Value, Each Group vs the Untreated Control: KRT10 (KRT10): n.s. | Linear Fold-Change Value, Each Group vs the Untreated Control: SPINK5 (SPINK5): n.s. | fold induction at 100 µM (TP63; Homo sapiens, 24 h, read-out: Linear Fold-Change Value, Each Group vs the Untreated Control: TP63): 1.21

Cc1ncc(CO)c(CO)c1O.Cl [Pyridoxine HCl]
Changes in microRNA Expression of hsa-miR-203 (linear fold-change) (hsa-miR-203): -1.78 fold | Changes in microRNA Expression of hsa-miR-720 (linear fold-change) (hsa-miR-720): -1.84 fold | Linear Fold-Change Value, Each Group vs the Untreated Control: CALML5 (CALML5): -1.90 fold | Linear Fold-Change Value, Each Group vs the Untreated Control: KLK7 (KLK7): -1.44 fold | Linear Fold-Change Value, Each Group vs the Untreated Control: KRT1 (KRT1): -4.56 fold | Linear Fold-Change Value, Each Group vs the Untreated Control: KRT10 (KRT10): -2.45 fold | Linear Fold-Change Value, Each Group vs the Untreated Control: LCE3D (LCE3D): n.s. | Linear Fold-Change Value, Each Group vs the Untreated Control: SPINK5 (SPINK5): -2.05 fold | Linear Fold-Change Value, Each Group vs the Untreated Control: TP63 (TP63): 1.55 fold

Cc1cc2nc3c(=O)[nH]c(=O)nc-3n(C[C@H](O)[C@H](O)[C@H](O)CO)c2cc1C [Vitamin B2, riboflavin]
Changes in microRNA Expression of hsa-miR-203 (linear fold-change) (hsa-miR-203): -1.96 fold | Changes in microRNA Expression of hsa-miR-720 (linear fold-change) (hsa-miR-720): -1.93 fold | Linear Fold-Change Value, Each Group vs the Untreated Control: CALML5 (CALML5): -1.24 fold | Linear Fold-Change Value, Each Group vs the Untreated Control: KLK7 (KLK7): -2.03 fold | Linear Fold-Change Value, Each Group vs the Untreated Control: KRT1 (KRT1): -4.00 fold | Linear Fold-Change Value, Each Group vs the Untreated Control: KRT10 (KRT10): -2.50 fold | Linear Fold-Change Value, Each Group vs the Untreated Control: LCE3D (LCE3D): 1.60 fold | Linear Fold-Change Value, Each Group vs the Untreated Control: SPINK5 (SPINK5): n.s. | Linear Fold-Change Value, Each Group vs the Untreated Control: TP63 (TP63): 1.34 fold

cobalamin [Vitamin B12]
Changes in microRNA Expression of hsa-miR-203 (linear fold-change) (hsa-miR-203): -1.46 fold | Changes in microRNA Expression of hsa-miR-720 (linear fold-change) (hsa-miR-720): -2.10 fold | Linear Fold-Change Value, Each Group vs the Untreated Control: CALML5 (CALML5): -1.73 fold | Linear Fold-Change Value, Each Group vs the Untreated Control: KLK7 (KLK7): n.s. | Linear Fold-Change Value, Each Group vs the Untreated Control: KRT1 (KRT1): -2.42 fold | Linear Fold-Change Value, Each Group vs the Untreated Control: KRT10 (KRT10): n.s. | Linear Fold-Change Value, Each Group vs the Untreated Control: LCE3D (LCE3D): -1.65 fold | Linear Fold-Change Value, Each Group vs the Untreated Control: SPINK5 (SPINK5): -1.63 fold
